We go through 62 molecules from a melting point compilation (Tetko et al.; mined from patent text by program, amines drawn as free bases though some values may be those of a salt).

Usually melting point stands for the temperature of the solid-liquid transition.

`CC(C)CN1C(N)=CC(=O)N2CCN=C21` displayed a melting point of 230 to 232 °C. The result for `CC(C)(C)OC(=O)NCC(=O)N1[C@@H](C(=O)OC(C)(C)C)C[C@H](C(=O)O)[C@H]1c1ccccc1` (racemic) reads 105 °C; that for `CC(=O)NC[C@H]1CN(c2cc(F)c(N3CCS(=O)(=O)CC3)c(F)c2)C(=O)O1`, 187 to 190 °C; that for `COc1ccc(-c2nc(=O)c3ccccc3o2)cc1`, 175 to 178 °C. The result for `CC(=O)c1nc2cc(C)c(F)cc2s1` reads 152 to 153 °C. The result for `COC(=O)c1nc2cc(Cn3ccnc3)ccc2[nH]1` reads 228 °C; that for `O=c1c2c(Cc3ccc(OC(F)(F)F)cc3)n[nH]c2c2cccnc2n1-c1cccc(C(F)(F)F)c1`, 134 to 137 °C; that for `O=C(O)c1cc(-c2cccc(C(F)(F)F)c2)c(=O)n2ccccc12`, 228 to 229 °C.

`COC(=O)[C@@H]1C(=O)NC[C@H]1c1ccc(Cl)cc1` displayed a melting point of 166 °C. The result for `COc1ccc(Cn2c(=O)c3c(N4CCN(C)CC4)cc(Cl)cc3n(Cc3ccccc3)c2=O)cc1` reads 81 to 89 °C.

As to `O=C1SCCN1Cc1ccc(Cl)cc1`, the melting point fell in the range of 68 to 69 °C. Then `CC(=O)Oc1ccc(S(=O)(=O)ON=C(C#N)c2cccs2)cc1`, with 114 to 115 °C. The result for `OC1CSC(Oc2cc(-c3cncnc3)cnc2Cl)C(O)C1O` (configuration not stated) reads 174 to 189 °C; that for `CC(C)N1Cc2cc(C(=O)O)ccc2N(CCN2CC=C(c3c[nH]c4cc(F)ccc34)CC2)S1(=O)=O`, 193 to 194 °C; that for `CCOC(=O)/C=C/c1cn(-c2ccccc2)nc1OCc1ccc(OCc2nc(-c3ccco3)oc2C)cc1`, 142 to 143 °C. `O=C(Oc1ccccc1)c1ccc(Oc2ccc([N+](=O)[O-])cc2)cc1O` showed a melting point of 118 to 120 °C. The result for `Nc1ccc(OC(F)(F)F)cc1C=O` reads 42 to 44 °C; that for `CS(=O)(=O)Nc1cccc(Nc2nc(NC3CCCC3)c3nc[nH]c3n2)c1`, 234 to 239 °C. Then `Oc1ccccc1CNCCCCCCCCCCCCNCc1ccccc1O`, with 72 to 73 °C; and `CCCc1nc2c(N)nc3cc(CCc4cccnc4)ccc3c2n1NC(C)C`, with 100 to 103 °C; and `Cc1nn(-c2ccc(C#N)c(Cl)c2)c(C)c1Oc1ccc(C(=O)N2CCOCC2)cc1`, with 156 to 157 °C. The result for `CCOc1cc2c(cc1O)C(=O)CC1C2CCC2(C)C(O)CCC12` (configuration not stated) reads 194 to 196 °C.

Molecule `CCCCCCCCCCCCCCOC(=O)c1cc(Cl)c(N2N=C(Nc3cc(N4CCCC4=O)ccc3Cl)CC2=O)c(Cl)c1` returned a melting point of 143 to 146 °C.

In turn, `COc1cccc(F)c1-n1nnc2cc(C(C)(C)C)c(OCc3ncnn3C)nc21` showed a melting point of 116 to 118 °C. The result for `Nc1ncnc2c1nc(NCCP(=O)(O)O)n2C1OC(CO)C(O)C1O` (configuration not stated) reads 175 °C; that for `COCCCS(=O)(=O)NC(=O)CCc1cc(C(C)(C)C)nn1Cc1ccc(C(F)(F)F)cc1Cl`, 149 to 150 °C. Then `CC(Oc1ncn(-c2ccc(Cl)cc2)n1)C(=O)O` (configuration not stated), with 196 to 198 °C; and `O=C(O)c1cccc(C[C@@H]2COc3ccc(OCc4ccccn4)cc3[C@@H]2O)c1` (relative stereo), with 196 to 198 °C; and `Cc1sc2ncc(C(O)CCc3ccccc3)n2c1C` (configuration not stated), with 153 to 154 °C. The result for `O=C1Nc2ccccc2C(c2ccc(Cl)c(Cl)c2)CC1Br` (configuration not stated) reads 183 to 188 °C.

For the molecule `CN1CCc2ccn(S(=O)(=O)c3ccccc3)c2C(c2ccccc2)C1` (configuration not stated), the melting point is 115 to 116 °C.

In the case of `CC(=O)NC(C)Cn1cc(-c2ccccc2)c2ccccc2c1=O` (configuration not stated), the melting point stood at 177 °C. The result for `COc1ccc(C2CCN(C(=O)NCc3ccccn3)CC2)cc1OC1CCCC1` reads 104 to 105 °C; that for `CCNc1c(O)ccc(N(CCO)CCO)c1[N+](=O)[O-]`, 115 °C. Take `CCSCC(=O)N1CCSC1COc1ccc(OC)cc1` (configuration not stated): the melting point lay within 98 to 110 °C. The result for `O=C(NCCCCCCOC(=O)N1CCC2(CCCC2)CC1)OC1CCN(C(=O)Oc2cccc(Oc3ccccc3)c2)CC1` reads 72 to 120 °C; that for `CSc1ccc(Oc2ccc([N+](=O)[O-])cc2[N+](=O)[O-])cc1`, 119 to 120 °C; that for `Cc1c(C)c2c(c(C)c1N)CC(C)(CN1CCC(OCC=Cc3ccccc3)CC1)O2` (configuration not stated), 77 to 79 °C.

`Cc1cc(SCc2cccc3nn(-c4ccc(C(F)(F)F)cc4)cc23)ccc1OC(C)(C)C(=O)O`: the melting point was 125 to 127 °C. Then `COc1ccc2cc(C#N)c(=O)oc2c1C`, with 215 °C.

In the case of `Cc1c(Cl)c(F)cc(C(=O)O)c1Cl`, the melting point was 167 to 169 °C. For the molecule `CN(C)C=Nc1c(-c2c(F)cc(F)cc2F)c(Cl)nc2ncnn12`, the melting point lay in the range of 188 to 190 °C. Then `CCOC(=O)C1=C(C)N(C(C)=O)C(c2csc(C)n2)=NC1c1cccc(F)c1` (configuration not stated), with 127 to 130 °C; and `CCCCCCCCCCCCCCCCCCN(CCCCCCCCCCCCCCCCCC)c1ccc([N+](=O)[O-])cc1[N+](=O)[O-]`, with 55.5 to 57.5 °C; and `CC(C)(C)NS(=O)(=O)c1ccccc1CCCl`, with 64 to 65 °C.

`CC(Oc1ccc(Oc2nc3ccc(Cl)cc3s2)cc1)C(=S)OC[Si](C)(C)C` (configuration not stated): the melting point is 90 °C. The result for `BrCc1ccccc1CCc1ccc(Br)cc1` reads 63 to 75 °C; that for `CC(=O)OC1CCCC2=CC=C3C4CCC(C(C)CCCC(C)C)C4(C)CCC3C21C` (configuration not stated), 105 to 106 °C; that for `COc1cc2c(cc1OCc1ccccc1)CCN(Cc1cccc(O[Si](C(C)C)(C(C)C)C(C)C)c1)C2`, 78 to 79 °C.

Turning to `CCOC(=O)C(=O)Nc1cccc([N+](=O)[O-])c1C#N`, the melting point lay in the range of 111 to 113 °C.

Take `CCCC[C@H](NC(=O)[C@H](CC(C)C)NC(=O)c1cc(F)ccc1F)C(=O)CSCc1ccco1`: the melting point was 102 °C. In turn, `CCC(CC)(CO)CCCCS(N)(=O)=O` had a melting point of 64 to 65 °C. The result for `C=CCN1CCC(c2cc(-c3ccc(Cl)cc3)[nH]n2)CC1` reads 165 to 167 °C; that for `NCC1(O)CCCc2c1ccc1c2OCO1` (configuration not stated), 140 to 142 °C. Then `O=C(O)C(O)=CC(=O)c1cc(Cc2ccc(F)cc2)cn(Cc2ccccc2F)c1=O`, with 182 to 184 °C; and `COc1ccc(C2C(=O)N(c3ccccc3)N(c3ccccc3)C2=O)cc1`, with 184 to 185 °C; and `CCCN(CC)c1cc(C)nc(Oc2c(C)ccc(Cl)c2C)c1C`, with 74 to 76 °C. The result for `O=C(Nc1ccc(Cl)nc1)C1=NN(c2ccc(Cl)cc2)C(c2ccc(F)cc2)C1` (configuration not stated) reads 191 to 193 °C. On to `CC(C)(C)OC(=O)N[C@@H](Cc1ccccc1)C(=O)CCC(=O)O`, for which the melting point was in the range of 108 to 110 °C. Then `COc1cc2c(cc1OCc1ccccc1)CN(Cc1ccccc1)C2`, with 94 to 96 °C; and `Oc1ccc2c(c1)CCNC21CCSCC1`, with 211 to 213 °C; and `CCOP(C)(=O)CC(Cc1ccccc1)NS(=O)(=O)c1ccc(C)cc1` (configuration not stated), with 121 to 122 °C.
